Target: T1, Ubiquitin carboxyl-terminal hydrolase 1 (Homo sapiens, UniProt O94782)
T1 sequence (O94782 whole entry): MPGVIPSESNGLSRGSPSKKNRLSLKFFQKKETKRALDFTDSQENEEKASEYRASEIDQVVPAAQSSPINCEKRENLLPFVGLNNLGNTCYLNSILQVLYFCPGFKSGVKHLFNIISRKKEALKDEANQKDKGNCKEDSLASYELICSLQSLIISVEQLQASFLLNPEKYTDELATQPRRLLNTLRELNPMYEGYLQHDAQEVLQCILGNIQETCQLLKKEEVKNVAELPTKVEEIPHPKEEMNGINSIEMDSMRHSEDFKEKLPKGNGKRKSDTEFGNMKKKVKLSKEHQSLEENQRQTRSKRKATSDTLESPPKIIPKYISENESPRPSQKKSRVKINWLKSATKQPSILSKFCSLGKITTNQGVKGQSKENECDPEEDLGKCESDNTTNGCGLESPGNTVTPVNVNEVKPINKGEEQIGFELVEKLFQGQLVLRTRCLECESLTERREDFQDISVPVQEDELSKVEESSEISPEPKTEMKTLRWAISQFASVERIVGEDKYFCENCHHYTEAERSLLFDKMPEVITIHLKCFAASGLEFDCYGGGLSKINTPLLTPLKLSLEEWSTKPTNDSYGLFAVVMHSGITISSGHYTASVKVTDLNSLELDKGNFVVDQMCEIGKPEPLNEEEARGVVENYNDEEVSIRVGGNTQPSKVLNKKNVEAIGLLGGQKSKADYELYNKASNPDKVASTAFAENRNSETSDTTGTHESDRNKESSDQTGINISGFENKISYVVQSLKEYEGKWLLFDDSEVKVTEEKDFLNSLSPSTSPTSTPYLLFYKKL
Experiment: Experimental Method of USP1 Enzyme Activity

| IC50 [nM] | Structure (SMILES) |
| --- | --- |
| 12.3 | COc1cnn(C2CC2)c1-c1ncc2c3ccncc3n(Cc3ccc(-c4nc(C(F)(F)F)cn4C)cc3)c2n1 [US20250368667, Compound 103] |
| 5.17 | COc1ncnc(C2CC2)c1-c1ncc2c3ccc(C(C)C)nc3n(Cc3ccc4c(c3)CCCn3cc(C(F)(F)F)nc3-4)c2n1 [US20250368667, Compound 105] |
| 16.6 | COc1ncnc(C2CC2)c1-c1ncc2c3ccc(=O)[nH]c3n(Cc3ccc4c(c3)CCCn3cc(C(F)(F)F)nc3-4)c2n1 [US20250368667, Compound 159] |
| 5.49 | [2H]C([2H])([2H])Oc1ncnc(C2CC2)c1-c1ncc2c3cn(C)nc3n(Cc3ccc(-c4nc(C(F)(F)F)cn4C(C)C)cc3)c2n1 [US20250368667, Compound 162] |

Reference: BindingDB's records for patent US20250368667 (Shanghai Qilu Pharmaceutical Research and Development Centre, 2025)
